Experimental data as given in patent US20240124444A1 (Celgene Corporation, priority 2020, published 2024).
Where two headings read alike, the source gives them in different places.

Test system: C. parvum strain UGA1
Experiment: C. parvum growth inhibition assay (Nluc luminescence in HCT-8 cells)
Format: cell-based, Cryptosporidium parvum
Conditions: Cryptosporidium parvum; for EC50: HCT-8, 48 h, C. parvum growth inhibition in HCT-8 cells, 48 hours, 6 concentrations 10-0.04 μM; for inhibition at 1 µM / inhibition at 10 µM: HCT-8; for inhibition at 1 µM: read-out: % inh @ 1 uM C. parvum; for inhibition at 10 µM: read-out: % inh @ 10 uM C. parvum
Method: C. parvum GROWTH INHIBITION ASSAYS
C. parvum growth inhibition was performed as described in Hulverson M A, Vinayak S, Choi R, Schaefer D A, Castellanos-Gonzalez A, Vidadala R S R, Brooks C F, Herbert G T, Betzer D P, Whitman G R, Sparks H N, Arnold S L M, Rivas K L, Barrett L K, White A C Jr, Maly D J, Riggs M W, Striepen B, Van Voorhis W C, Ojo K K. Bumped-Kinase Inhibitors for Cryptosporidiosis Therapy. J Infect Dis. 2017 Apr. 15; 215(8):1275-1284.
C. parvum strain UGA1 […] (ATCC, Manassas, VA) were prepared as described below. HCT-8 cells were inoculated onto 96-well plates were grown for 48 hours to 90%-100% confluence. C. parvum oocysts were then incubated for 10 minutes in 10% bleach at room temperature and washed with Dulbecco's phosphate-buffered saline. One thousand oocysts per well were applied to plates with Roswell Park Memorial Institute 1640 (RPMI) medium supplemented with 10% horse serum and 1% penicillin/streptomycin. Compounds of Formula (I), Formula (II), and Formula (III) were added to the plates at different concentrations and the plates were incubated for 48 hours. Following the incubation, the monolayers were lysed for 1 hour before a luciferase reagent was added, and relative luminescence units were determined.
For certain compounds of Formula I, Formula II, and Formula III, EC50 values were calculated using curves calculated from Prism after analysis of C. parvum growth inhibition at 6 different concentrations: 10, 3.33, 1.11, 0.37, 0.12, and 0.04 μM. […] For certain compounds of Formula I, Formula II, and Formula III, single point inhibition values of 0-33% (activity level D), between 33% and 66% (activity level E), and between 67% and 100% (activity level F) are also shown in Table 1 below.

[1] = single point inhibition at 1 uM
[2] = single point inhibition at 10 uM
[3] = single point inhibition @ 10 uM

SMILES	EC50 [µM]	inhibition at 1 µM [1] [%]	inhibition at 10 µM [2] [%]	other results
Cc1cc(-c2cc3cnc(NC(=O)C4CCC4)cc3[nH]2)ncn1 [Example 98, N-(2-(6-methylpyrimidin-4-yl)-1H-pyrrolo[3,2-c]pyridin-6-yl)cyclobutanecarboxamide]	> 1	–	–	–
CCc1cc2cnc(NC3CCOCC3)cc2[nH]1 [Example 361, 2-ethyl-N-(tetrahydro-2H-pyran-4-yl)-1H-pyrrolo[3,2-c]pyridin-6-amine]	> 1	–	–	–
Cc1cc(-c2cc3cnc(NC(=O)C4CC4)cc3[nH]2)ccc1F [Example 340, N-(2-(4-fluoro-3-methylphenyl)-1H-pyrrolo[3,2-c]pyridin-6-yl)cyclopropanecarboxamide]	–	0 to 33	0 to 33	–
CCOc1nccc(-c2cc3cnc(NC(=O)C4C5CCCCC54)cc3[nH]2)n1 (stereo not drawn) [Example 158, N-(2-(2-ethoxypyrimidin-4-yl)-1H-pyrrolo[3,2-c]pyridin-6-yl)bicyclo[4.1.0]heptane-7-carboxamide]	–	–	–	inhibition at 1 µM (single point inhibition @ 1 uM): 0 to 33%; inhibition at 10 µM [3]: 67 to 100%
Cc1cc(-c2cc3cnc(NC(=O)C4(C)CC4)cc3[nH]2)ccn1 [Example 95, 1-methyl-N-(2-(2-methylpyridin-4-yl)-1H-pyrrolo[3,2-c]pyridin-6-yl)cyclopropanecarboxamide]	> 1	–	–	–
COc1cc(Nc2cc3[nH]c(C#N)cc3cn2)cc(C2CCOCC2)c1 [Example 148, 6-(3-methoxy-5-(tetrahydro-2H-pyran-4-yl)phenylamino)-1H-pyrrolo[3,2-c]pyridine-2-carbonitrile]	–	–	–	inhibition at 1 µM (single point inhibition @ 1 uM): 0 to 33%; inhibition at 10 µM [3]: 67 to 100%
Cc1ccnc(-c2cc3cnc(NC4CCOCC4)cc3[nH]2)c1 [Example 350, 2-(4-methylpyridin-2-yl)-N-(tetrahydro-2H-pyran-4-yl)-1H-pyrrolo[3,2-c]pyridin-6-amine]	> 1	–	–	–
Cc1ncc(-c2cc3cnc(NC(=O)C4CC4)cc3[nH]2)s1 [Example 101, N-(2-(2-methylthiazol-5-yl)-1H-pyrrolo[3,2-c]pyridin-6-yl)cyclopropanecarboxamide]	> 1	–	–	–
COCCn1cc(Nc2cc3[nH]c(-c4ccncc4)cc3cn2)cn1 [Example 192, N-(1-(2-methoxyethyl)-1H-pyrazol-4-yl)-2-(pyridin-4-yl)-1H-pyrrolo[3,2-c]pyridin-6-amine]	–	–	–	inhibition at 1 µM (single point inhibition @ 1 uM): 33 to 66%; inhibition at 10 µM [3]: 67 to 100%
N#Cc1cc2cnc(Nc3cc(-c4nc[nH]n4)cc(C4CCOCC4)c3)cc2[nH]1 [Example 208, 6-(3-(tetrahydro-2H-pyran-4-yl)-5-(1H-1,2,4-triazol-3-yl)phenylamino)-1H-pyrrolo[3,2-c]pyridine-2-carbonitrile]	–	0 to 33	67 to 100	–
Cc1cc(-c2cc3cnc(NC(=O)C4CC4)cc3n2C(C)C)ccn1 [Example 329, N-(1-isopropyl-2-(2-methylpyridin-4-yl)-1H-pyrrolo[3,2-c]pyridin-6-yl)cyclopropanecarboxamide]	–	0 to 33	0 to 33	–
CCOc1nccc(-c2cc3cnc(NC(=O)c4ccc(OC)c(OC)c4)cc3[nH]2)n1 [Example 321, N-(2-(2-ethoxypyrimidin-4-yl)-1H-pyrrolo[3,2-c]pyridin-6-yl)-3,4-dimethoxybenzamide]	–	0 to 33	0 to 33	–
CC(=O)Nc1cc2c(cn1)cc(-c1cc(C)ncn1)n2C [Example 119, N-(1-methyl-2-(6-methylpyrimidin-4-yl)-1H-pyrrolo[3,2-c]pyridin-6-yl)acetamide]	> 1	–	–	–
c1nc(NC2CCOCC2)cc2[nH]c(C3CCC3)cc12 [Example 121, 2-cyclobutyl-N-(tetrahydro-2H-pyran-4-yl)-1H-pyrrolo[3,2-c]pyridin-6-amine]	> 1	–	–	–
O=C(Nc1cc2[nH]c(C3CC(F)(F)C3)cc2cn1)C1CC1 [Example 53, N-(2-(3,3-difluorocyclobutyl)-1H-pyrrolo[3,2-c]pyridin-6-yl)cyclopropanecarboxamide]	> 1	–	–	–
CNC(=O)c1ccc(Nc2cc3[nH]c(-c4ccnc(C)c4)cc3cn2)cc1 [Example 190, N-methyl-4-(2-(2-methylpyridin-4-yl)-1H-pyrrolo[3,2-c]pyridin-6-ylamino)benzamide]	–	–	–	inhibition at 1 µM (single point inhibition @ 1 uM): 0 to 33%; inhibition at 10 µM [3]: 67 to 100%
COc1nccc(-c2cc3cnc(NC(=O)c4cnn(C(C)C)c4)cc3[nH]2)n1 [Example 177, 1-isopropyl-N-(2-(2-methoxypyrimidin-4-yl)-1H-pyrrolo[3,2-c]pyridin-6-yl)-1H-pyrazole-4-carboxmaide]	–	–	–	inhibition at 1 µM (single point inhibition @ 1 uM): 0 to 33%; inhibition at 10 µM [3]: 67 to 100%
COc1ccc(Nc2cc3c(cn2)cc(-c2cnn(C)c2)n3C)cc1 [Example 203, N-(4-methoxyphenyl)-1-methyl-2-(1-methyl-1H-pyrazol-4-yl)-1H-pyrrolo[3,2-c]pyridin-6-amine]	–	0 to 33	67 to 100	–
Cn1cnc(-c2cc3cnc(NC(=O)C4CC4)cc3n2C)n1 [Example 57, N-(1-methyl-2-(1-methyl-1H-1,2,4-triazol-3-yl)-1H-pyrrolo[3,2-c]pyridin-6-yl)cyclopropanecarboxamide]	> 1	–	–	–
Cc1cc(-c2cc3cnc(NC(=O)C(C)C)cc3n2C)ncn1 [Example 118, N-(1-methyl-2-(6-methylpyrimidin-4-yl)-1H-pyrrolo[3,2-c]pyridin-6-yl)isobutyramide]	> 1	–	–	–
Cn1cc(C(=O)Nc2cc3[nH]c(-c4ccnc(OCC5CCC5)n4)cc3cn2)cn1 [Example 313, N-(2-(2-(cyclobutylmethoxy)pyrimidin-4-yl)-1H-pyrrolo[3,2-c]pyridin-6-yl)-1-methyl-1H-pyrazole-4-carboxamide]	–	0 to 33	0 to 33	–
Cn1c(-c2ccnc(NCC(F)(F)F)n2)cc2cnc(NC3CCCOC3)cc21 (stereo in doubt) [Example 379, (S)-1-methyl-N-(tetrahydro-2H-pyran-3-yl)-2-(2-(2,2,2-trifluoroethylamino)pyrimidin-4-yl)-1H-pyrrolo[3,2-c]pyridin-6-amine]	> 1	–	–	–
Cn1c(-c2ccnc(NCC(F)(F)F)c2)cc2cnc(NC3CCOCC3)cc21 [Example 382, 1-methyl-N-(tetrahydro-2H-pyran-4-yl)-2-(2-(2,2,2-trifluoroethylamino)pyridin-4-yl)-1H-pyrrolo[3,2-c]pyridin-6-amine]	> 1	–	–	–
Cn1cc(C(=O)Nc2cc3[nH]c(-c4ccnc(OCCC(F)(F)F)n4)cc3cn2)cn1 [Example 213, 1-methyl-N-(2-(2-(3,3,3-trifluoropropoxy)pyrimidin-4-yl)-1H-pyrrolo[3,2-c]pyridin-6-yl)-1H-pyrazole-4-carboxamide]	–	0 to 33	67 to 100	–
CC(C)n1cc(C(=O)Nc2cc3[nH]c(-c4ccnc(NCC(F)(F)F)n4)cc3cn2)cn1 [Example 172, 1-isopropyl-N-(2-(2-(2,2,2-trifluoroethylamino)pyrimidin-4-yl)-1H-pyrrolo[3,2-c]pyridin-6-yl)-1H-pyrazole-4-carboxamide]	–	–	–	inhibition at 1 µM (single point inhibition @ 1 uM): 67 to 100%; inhibition at 10 µM [3]: 67 to 100%
Cn1cc(C(=O)Nc2cc3[nH]c(-c4cc(C#N)ccn4)cc3cn2)cn1 [Example 300, N-(2-(4-cyanopyridin-2-yl)-1H-pyrrolo[3,2-c]pyridin-6-yl)-1-methyl-1H-pyrazole-4-carboxamide]	–	0 to 33	0 to 33	–
Cc1c[nH]c2cc(NC(=O)C3CC3)ncc12 [Example 115, N-(3-methyl-1H-pyrrolo[3,2-c]pyridin-6-yl)cyclopropanecarboxamide]	> 1	–	–	–
Cc1cc(-c2cc3cnc(NC(=O)C4CC4)cc3n2C)ccn1 [Example 83, N-(1-methyl-2-(2-methylpyridin-4-yl)-1H-pyrrolo[3,2-c]pyridin-6-yl)cyclopropanecarboxamide]	> 1	–	–	inhibition at 1 µM (single point inhibition @ 1 uM): 0 to 33%; inhibition at 10 µM [3]: 0 to 33%
Cc1c(C(=O)Nc2cc3[nH]c(-c4ccncc4)cc3cn2)cnn1C [Example 166, 1,5-dimethyl-N-(2-(pyridin-4-yl)-1H-pyrrolo[3,2-c]pyridin-6-yl)-1H-pyrazole-4-carboxamide]	–	–	–	inhibition at 1 µM (single point inhibition @ 1 uM): 0 to 33%; inhibition at 10 µM [3]: 67 to 100%
COc1nccc(-c2cc3cnc(NC(=O)c4cnn(CC5CCCO5)c4)cc3[nH]2)n1 (stereo in doubt) [Example 231, (R)-N-(2-(2-methoxypyrimidin-4-yl)-1H-pyrrolo[3,2-c]pyridin-6-yl)-1-((tetrahydrofuran-2-yl)methyl)-1H-pyrazole-4-carboxamide]	–	33 to 66	33 to 66	–
